Source: patent publication US7300946B2, “N-(substituted arylmethyl)-4-(disubstituted methyl) piperidines and pyridines” (Bayer CropScience AG, priority 2002, dated 2007)

Tested on: tobacco budworm (Heliothis virescens [Fabricius])
Assay: surface-treated diet test against the tobacco budworm
Format: in vivo
Details: tobacco budworm second instar larvae, 0.25 millimoles of candidate insecticide on the surface of the diet, five-day exposure; for Percent Mortality: compared to total number of insects infested; for Percent Growth Inhibition: inhibition of insect weight relative to untreated controls
Outline: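 Wheat germ artificial diet surface-treated with 40 µL of 50 mM DMSO stock diluted 1:7 in 1:1 water/acetone (0.25 millimolar on diet), or sub-multiples for rate tests. One second-instar larva per well, 25° C, 60% RH, 5 days; percent weight inhibition vs DMSO controls and percent mortality.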

| Structure (SMILES) | Percent Mortality (surface-treated diet) [%] | Percent Growth Inhibition (surface-treated diet) [%] | Percent Mortality [%] | Percent Growth Inhibition [%] |
| --- | --- | --- | --- | --- |
| N#Cc1cccnc1Oc1ccc(CN2CCC(C(OC(=O)Nc3cc(F)cc(F)c3)c3ccc(C(F)(F)F)cc3)CC2)cc1 (stereo not drawn) [Compound 687] | 100 | 100 |  |  |
| N#Cc1ccc(Oc2ccc(CN3CCC(C(OC(=O)Nc4cc(F)cc(F)c4)c4ccc(C(F)(F)F)cc4)CC3)cc2)nc1 (stereo not drawn) [Compound 688] | 100 | 100 |  |  |
| O=C(Nc1cc(F)cc(F)c1)OC(c1ccc(C(F)(F)F)cc1)C1CCN(Cc2ccc(Oc3ncccc3C(F)(F)F)cc2)CC1 (stereo not drawn) [Compound 689] | 100 | 100 |  |  |
| O=C(Nc1cc(F)cc(F)c1)OC(c1ccc(C(F)(F)F)cc1)C1CCN(Cc2ccc(Oc3cc(C(F)(F)F)ccn3)cc2)CC1 (stereo not drawn) [Compound 690] | 100 | 100 |  |  |
| O=C(Nc1cc(F)cc(F)c1)OC(c1ccc(C(F)(F)F)cc1)C1CCN(Cc2ccc(Oc3ccc(C(F)(F)F)cn3)cc2)CC1 (stereo not drawn) [Compound 691] | 100 | 100 |  |  |
| FC(F)(F)c1ccc(C(OC(=S)Nc2cccc(C(F)(F)F)c2)C2CCN(Cc3ccc(Oc4ccccn4)cc3)CC2)cc1 (stereo not drawn) [Compound 692] | 100 | 100 |  |  |
| FC(F)(F)c1ccc(NC(=S)OC(c2ccc(C(F)(F)F)cc2)C2CCN(Cc3ccc(Oc4ccccn4)cc3)CC2)cc1 (stereo not drawn) [Compound 693] | 100 | 100 |  |  |
| Cc1cccc(CNC(=O)OC(c2ccc(C(F)(F)F)cc2)C2CCN(Cc3ccc(Oc4ccccn4)cc3)CC2)c1 (stereo not drawn) [Compound 694] | 50 | 100 |  |  |
| Cc1ccc(CNC(=O)OC(c2ccc(C(F)(F)F)cc2)C2CCN(Cc3ccc(Oc4ccccn4)cc3)CC2)cc1 (stereo not drawn) [Compound 695] | 100 | 100 |  |  |
| Cc1ccc(S(=O)(=O)NC(=O)OC(c2ccc(C(F)(F)F)cc2)C2CCN(Cc3ccc(Oc4ccccn4)cc3)CC2)cc1 (stereo not drawn) [Compound 696] | 0 | 32 |  |  |
| O=C(Nc1cc(F)c(F)c(F)c1)OC(c1ccc(C(F)(F)F)cc1)C1CCN(Cc2ccc(Oc3ccccn3)cc2)CC1 (stereo not drawn) [Compound 697] | 100 | 100 |  |  |
| COc1ccc(CNC(=O)OC(c2ccc(C(F)(F)F)cc2)C2CCN(Cc3ccc(Oc4ccccn4)cc3)CC2)cc1 (stereo not drawn) [Compound 698] | 100 | 100 |  |  |
| COc1ccc(NC(=O)OC(c2ccc(C(F)(F)F)cc2)C2CCN(Cc3ccc(Oc4ccccn4)cc3)CC2)cc1Cl (stereo not drawn) [Compound 699] | 100 | 100 |  |  |
| COc1ccc(NC(=O)OC(c2ccc(C(F)(F)F)cc2)C2CCN(Cc3ccc(Oc4ccccn4)cc3)CC2)cc1F (stereo not drawn) [Compound 700] | 100 | 100 |  |  |
| O=C(Nc1ccc(OC(F)F)cc1)OC(c1ccc(C(F)(F)F)cc1)C1CCN(Cc2ccc(Oc3ccccn3)cc2)CC1 (stereo not drawn) [Compound 701] |  |  | 100 | 100 |
| CSc1ccc(NC(=O)OC(c2ccc(C(F)(F)F)cc2)C2CCN(Cc3ccc(Oc4ccccn4)cc3)CC2)cc1 (stereo not drawn) [Compound 702] |  |  | 100 | 100 |
| O=C(Nc1ccc(SC(F)(F)F)cc1)OC(c1ccc(C(F)(F)F)cc1)C1CCN(Cc2ccc(Oc3ccccn3)cc2)CC1 (stereo not drawn) [Compound 703] |  |  | 100 | 100 |
| N#Cc1ccc(NC(=O)OC(c2ccc(C(F)(F)F)cc2)C2CCN(Cc3ccc(Oc4ccccn4)cc3)CC2)cc1 (stereo not drawn) [Compound 704] |  |  | 100 | 100 |

| Structure (SMILES) | Percent Mortality (surface-treated diet) [%] | Percent Growth Inhibition (surface-treated diet) [%] | Percent Mortality [%] | Percent Growth Inhibition [%] |
| --- | --- | --- | --- | --- |
| CC(=O)c1ccc(NC(=O)OC(c2ccc(C(F)(F)F)cc2)C2CCN(Cc3ccc(Oc4ccccn4)cc3)CC2)cc1 (stereo not drawn) [Compound 705] |  |  | 17 | 100 |
| O=C(Nc1ccc(Cl)cc1)OC(c1ccc(OC(F)(F)F)cc1)C1CCN(Cc2ccc(Oc3cccc[n+]3[O-])cc2)CC1 (stereo not drawn) [Compound 706] |  |  | 100 | 100 |
| N#Cc1cccnc1Oc1ccc(CN2CCC(C(OC(=O)Nc3ccc(Cl)cc3)c3ccc(OC(F)(F)F)cc3)CC2)cc1 (stereo not drawn) [Compound 707] |  |  | 100 | 100 |
| N#Cc1ccc(Oc2ccc(CN3CCC(C(OC(=O)Nc4ccc(Cl)cc4)c4ccc(OC(F)(F)F)cc4)CC3)cc2)nc1 (stereo not drawn) [Compound 708] |  |  | 100 | 100 |
| O=C(Nc1cc(F)cc(F)c1)OC(c1ccc(OC(F)(F)F)cc1)C1CCN(Cc2ccc(Oc3cccc[n+]3[O-])cc2)CC1 (stereo not drawn) [Compound 709] |  |  | 100 | 100 |
| N#Cc1cccnc1Oc1ccc(CN2CCC(C(OC(=O)Nc3cc(F)cc(F)c3)c3ccc(OC(F)(F)F)cc3)CC2)cc1 (stereo not drawn) [Compound 710] |  |  | 100 | 100 |
| N#Cc1ccc(Oc2ccc(CN3CCC(C(OC(=O)Nc4cc(F)cc(F)c4)c4ccc(OC(F)(F)F)cc4)CC3)cc2)nc1 (stereo not drawn) [Compound 711] |  |  | 100 | 100 |
| O=C(Nc1ccc(Cl)cc1)OC(c1ccc(Cl)cc1)C1CCN(Cc2ccc(Oc3ncccn3)cc2)CC1 (stereo not drawn) [Compound 712] |  |  | 100 | 100 |
| O=C(Nc1cccc(F)c1)OC(c1ccc(Cl)cc1)C1CCN(Cc2ccc(Oc3ncccn3)cc2)CC1 (stereo not drawn) [Compound 713] |  |  | 100 | 100 |
| O=C(Nc1cc(F)cc(F)c1)OC(c1ccc(Cl)cc1)C1CCN(Cc2ccc(Oc3ncccn3)cc2)CC1 (stereo not drawn) [Compound 714] |  |  | 100 | 100 |
| O=C(Nc1ccc(Cl)cc1)OC(c1ccc(F)cc1)C1CCN(Cc2ccc(Oc3ncccn3)cc2)CC1 (stereo not drawn) [Compound 715] |  |  | 100 | 100 |
| O=C(Nc1cccc(F)c1)OC(c1ccc(F)cc1)C1CCN(Cc2ccc(Oc3ncccn3)cc2)CC1 (stereo not drawn) [Compound 716] |  |  | 100 | 100 |
| O=C(Nc1cc(F)cc(F)c1)OC(c1ccc(F)cc1)C1CCN(Cc2ccc(Oc3ncccn3)cc2)CC1 (stereo not drawn) [Compound 717] |  |  | 100 | 100 |
| O=C(Nc1ccc(Cl)cc1)OC(c1ccc(Cl)cc1Cl)C1CCN(Cc2ccc(Oc3ncccn3)cc2)CC1 (stereo not drawn) [Compound 718] |  |  | 100 | 100 |
| O=C(Nc1cccc(F)c1)OC(c1ccc(Cl)cc1Cl)C1CCN(Cc2ccc(Oc3ncccn3)cc2)CC1 (stereo not drawn) [Compound 719] |  |  | 100 | 100 |
| O=C(Nc1cc(F)cc(F)c1)OC(c1ccc(Cl)cc1Cl)C1CCN(Cc2ccc(Oc3ncccn3)cc2)CC1 (stereo not drawn) [Compound 720] |  |  | 100 | 100 |
| O=C(Nc1ccc(Cl)cc1)OC(c1ccc(Cl)c(Cl)c1)C1CCN(Cc2ccc(Oc3ncccn3)cc2)CC1 (stereo not drawn) [Compound 721] |  |  | 100 | 100 |
| O=C(Nc1ccc(F)cc1)OC(c1ccc(Cl)c(Cl)c1)C1CCN(Cc2ccc(Oc3ncccn3)cc2)CC1 (stereo not drawn) [Compound 722] |  |  | 83 | 100 |
